Entries after “also recorded” stand apart in the source; their conditions may differ. Read-outs that look alike come from different tables or passages of the source. Where a SMILES comes first, the peptide text is derived from it. Bridges are numbered along the chain shown (N, C = ends).
Tests used:
[1] = tested on: human colon cancer Ls174T cell line implanted in NIH athymic mice; test: Ls174T colon cancer tumor model in athymic mice; format: in vivo; conditions: FIG. 19B
Method: The Ls174T colon cancer tumor model in athymic mice was used to evaluate the potential effect of the linear Gly255-Ser274 segment (peptide N06P87), compared to the CIGB370r polypeptide, on human tumor models. Human tumor cells were administered by subcutaneous route, and the molecules of interest or the vehicle were administered by intratumor route (100 μL). After 13 days, when tumors were implanted and palpable, administration schedules started for the molecules of interest (FIG. 8A). The peptide N06P87 was administered in down-scaled doses: two administrations of 600 μM each every 48 h, followed by 4 administrations of 330 μM each every 48 h, and lastly 4 administrations of 90 μM each every 72 h. The CIGB370r peptide was administered weekly for 4 weeks.
The effects of the linear segment Gly255-Ser274 (peptide N06P87) and two other model cyclic peptides of the present invention were compared to the effect of the CIGB370r polypeptide in the Ls174T human colon cancer model in athymic NIH mice, with the dose and schedule shown in FIG. 19. After 13 days, once the tumors were implanted and palpable, biomolecules began to be administered (FIG. 19 A). The peptides were administered in down-scaled doses: 2 administrations of 600 μM every 48 h, followed by 4 administrations of 330 μM each every 48 h, and 4 final 90 μM administrations every 72 h. […]

[2] = tested on: TC-1 tumor; test: TC-1 subcutaneous tumor model in C57BL/6 mice; format: in vivo; conditions: 80 μM; for survival: intratumoral route
Method: Six-to-eight weeks-old, C57BL/6 female mice of 22 g of weight were supplied by the National Center for Laboratory Animal Production (CENPALAB, Havana, Cuba) and housed under pathogen-free conditions at the Bioterium of the Center for Genetic Engineering and Biotechnology (CIGB). Experiments were carried out in agreement with regulations for proper handling and care of laboratory animals. Tumor volume was measured on each case (estimated by the formula: volume=a^2×(b/2), where a is the width and b is the length of the tumor) and animal survival was evaluated.
Survival was compared between groups by the Logrank test. The statistic parameters were obtained with the aid of the GraphPad Prism 4.0 software (GraphPad Software, San Diego, Calif., USA).
C57BL/6 mice were injected in the right flank by subcutaneous route (s.c.) with 50 000 TC-1 cells. When tumors were detectable, mice were randomized into treatment groups to evaluate the treatment with the peptides subject of study, to evaluate them by different administration routes. Tumor-bearing animals received 6 administrations in alternate days, with 80 μM of the subject peptide, solely received the vehicle as control. Five mice were used for each group. Animals were housed under pathogen-free conditions, and procedures were conducted in agreement with good practices for laboratory animal handling and care.

[3] = tested on: human tumor cell lines (A549, A375, PC-3, U87)
[4] = tested on: primary fibroblasts
[5] = tested on: human tumor cells; test: Cytotoxic activity screening of peptide library on human tumor cell lines, SRB method; format: cell-based
Method: (§1) Negative control cells were cultured on a volume of vehicle equal to that of the experimental samples. An “x-y” curve (dose-response) was established with the percent of surviving cells, compared in respect to the negative control cells, and the following parameters were estimated: 50% growth inhibition (GI50); Total growth inhibition (TGI); and the lethal concentration 50 (LC50), that is the concentration causing the 50% of cell death (Boyd M R, Paull K D, and Rubinstein L R (1992) “Data display and analysis strategies for the NCI Disease Oriented In-Vitro Antitumor Drug Screen, in Cytotoxic Anticancer Drugs: Models and Concept for Drug Discovery and Development” (Baleriote F A, Corbett T H and Baker L H eds) pp 11-34, Kluwer Academia Publishers, Boston).
(§2) Were considered as cytotoxic peptides all those peptides being able of inhibiting 50% of the cellular proliferation, in a dose-dependent manner, and showing GI50 values below 100 μM, at least in one of the cell lines studied. The human tumor cell lines used were: HEp-2 (larynx carcinoma), A549 (lung epithelial adenocarcinoma), M14 (melanoma), Colo 205 (colon adenocarcinoma), Ls174T (colon adenocarcinoma), LnCAP (prostate carcinoma), PC-3 (prostate carcinoma) and H 125 (non-small cell lung adenocarcinoma). Represented are primary sequences for the designed peptides, the code used for its generation and their respective cytotoxic capacity on human tumor cells.

[6] = tested on: M14 (melanoma); test: SRB cytotoxicity on M14 melanoma cells; format: cell-based; conditions: M14 human melanoma cells
Method: as §1, §2
The inability of peptide N06P89 (cyclized by two cysteins located at both N- and C-termini) to inhibit cellular proliferation in M14 human melanoma tumor cells is shown in FIG. 7. […] At the same FIG. 7, it is also shown the need for blocking the C-terminus (for example, an amide group or other modification) to achieve the cytotoxic capacity expected for the peptide region of interest.

[7] = tested on: Colo 205 (colon adenocarcinoma); test: SRB cytotoxicity on Colo 205 cells; format: cell-based, human
Method: as §1
(§3) Were considered as cytotoxic peptides all those peptides being able of inhibiting 50% of the cellular proliferation, in a dose-dependent manner, and showing GI50 values below 100 μM, at least in one of the cell lines studied. The human tumor cell lines used were: HEp-2 (larynx carcinoma), A549 (lung epithelial adenocarcinoma), M14 (melanoma), Colo 205 (colon adenocarcinoma), Ls174T (colon adenocarcinoma), LnCAP (prostate carcinoma), PC-3 (prostate carcinoma) and H 125 (non-small cell lung adenocarcinoma). […]

[8] = tested on: HEp-2 (larynx carcinoma); test: SRB cytotoxicity on HEp-2 cells; format: cell-based, human
Method: as §1, §3

[9] = tested on: A549 (lung epithelial adenocarcinoma); test: SRB cytotoxicity on A549 cells; format: cell-based, human
Method: as §1, §3

[10] = tested on: Ls174T (colon adenocarcinoma); test: SRB cytotoxicity on Ls174T cells; format: cell-based, human
Method: as §1, §3

[11] = peptide combined with prodigiosin

CC(C)C[C@@H]1NC(=O)[C@H](Cc2ccccc2)NC(=O)[C@H](CC(=O)O)NC(=O)[C@H](CCCNC(=N)N)NC(=O)CNC(=O)[C@H]([C@@H](C)O)NC(=O)[C@H](CC(N)=O)NC(=O)[C@@H](N)CSSC[C@@H](C(N)=O)NC1=O [Peptide A08P25s-s, CNTGRDFLC] (H-CNTGRDFLC-NH2; disulfide 1-9)
T/C values related to the mean tumor volume [1]: 35% | survival [2]: intermediate survival block | effect on the cytotoxic activity of prodigiosin [3]: enhanced | GI50 values [3, 11]: nm range | decrease of the cytotoxic activity of prodigiosin on primary fibroblasts [4]: at least one order of magnitude

CC(C)C[C@@H]1NC(=O)[C@H](Cc2ccccc2)NC(=O)[C@H](CC(=O)O)NC(=O)[C@H](CCCNC(=N)N)NC(=O)CNC(=O)[C@H]([C@@H](C)O)NC(=O)[C@H](CC(N)=O)NC(=O)[C@@H](NC(=O)[C@H](CC(N)=O)NC(=O)[C@H](Cc2ccccc2)NC(=O)CNC(=O)[C@H](Cc2ccc(O)cc2)NC(=O)[C@@H](NC(=O)[C@@H](NC(=O)[C@H](CC(=O)O)NC(=O)CN)[C@@H](C)O)C(C)C)CSSC[C@@H](C(=O)N[C@H](C(=O)N[C@H](C(=O)N[C@@H](CO)C(N)=O)[C@@H](C)O)[C@@H](C)O)NC1=O [Peptide A08P28s-s] (H-GDTVYGFNCNTGRDFLCTTS-NH2; disulfide 9-17)
survival [2]: intermediate survival block | GI50 values [3, 11]: nm range | effect on the cytotoxic activity of prodigiosin [3, 11]: enhanced | decrease of the cytotoxic activity of prodigiosin on primary fibroblasts [4, 11]: at least one order of magnitude

CC[C@H](C)[C@H](NC(=O)[C@H](CC(N)=O)NC(=O)[C@@H](NC(=O)[C@H](CO)NC(=O)[C@H](CC(C)C)NC(=O)[C@H](CC(=O)O)NC(=O)[C@@H](NC(=O)[C@@H](NC(=O)[C@H](CC(N)=O)NC(=O)[C@H](CO)NC(=O)[C@H](CO)NC(=O)[C@H](C)NC(=O)[C@@H](N)CC(N)=O)C(C)C)[C@@H](C)O)C(C)C)C(=O)NCC(=O)NCC(=O)N[C@@H](Cc1c[nH]cn1)C(=O)N[C@@H](CCC(N)=O)C(=O)N[C@@H](C)C(=O)N1CCC[C@H]1C(=O)N[C@@H](CC(=O)O)C(N)=O [Peptide E02P04] (H-NASSNVTDLSVNIGGHQAPD-NH2)
Cytotoxic activity in vitro ([5]; SRB method, cytotoxic = dose-dependent 50% inhibition of proliferation, GI50 below 100 μM in at least one cell line): + (Symbol + indicates the presence of cytotoxicity) | cytotoxic activity / inhibition of cellular proliferation [6]: showed activity | cytotoxic activity / inhibition of cellular proliferation ([6]; listed as E07P04): showed cytotoxic activity

CC(C)[C@H](NC(=O)[C@@H](NC(=O)[C@H](CC(=O)O)NC(=O)CN)[C@@H](C)O)C(=O)N[C@H]1CSSC[C@@H](C(=O)N[C@@H](CO)C(=O)N[C@H](C(=O)N[C@H](C(=O)N[C@@H](CO)C(N)=O)[C@@H](C)O)[C@@H](C)O)NC(=O)[C@H](Cc2ccccc2)NC(=O)[C@H](CC(=O)O)NC(=O)[C@H](CCCNC(=N)N)NC(=O)CNC(=O)[C@H]([C@@H](C)O)NC(=O)[C@H](CC(N)=O)NC(=O)[C@H](CO)NC(=O)[C@H](CC(N)=O)NC(=O)[C@H](Cc2ccccc2)NC(=O)CNC1=O [Peptide J08P46s-s] (H-GDTVCGFNSNTGRDFCSTTS-NH2; disulfide 5-16)
survival [2]: intermediate survival block | GI50 values [3, 11]: nm range | effect on the cytotoxic activity of prodigiosin [3, 11]: enhanced | decrease of the cytotoxic activity of prodigiosin on primary fibroblasts [4, 11]: at least one order of magnitude

CC(C)C[C@@H]1NC(=O)[C@H](Cc2ccccc2)NC(=O)[C@H](CC(=O)O)NC(=O)[C@H](CCCNC(=N)N)NC(=O)CNC(=O)[C@H]([C@@H](C)O)NC(=O)[C@H](CC(N)=O)NC(=O)[C@H](CO)NC(=O)[C@H](CC(N)=O)NC(=O)[C@@H](NC(=O)CNC(=O)[C@H](Cc2ccc(O)cc2)NC(=O)[C@@H](NC(=O)[C@@H](NC(=O)[C@H](CC(=O)O)NC(=O)CN)[C@@H](C)O)C(C)C)CSSC[C@@H](C(N)=O)NC(=O)CNC(=O)[C@H]([C@@H](C)O)NC(=O)[C@H](CO)NC1=O [Peptide J08P48s-s] (H-GDTVYGCNSNTGRDFLSTGC-NH2; disulfide 7-20)
T/C values related to the mean tumor volume [1]: 35% | survival by intratumoral and intraperitoneal routes ([2]; i.t. or i.p., FIG. 17): reproduce the effects observed in this model for the CIGB370r polypeptide | survival [2]: highest survival block | GI50 values [3, 11]: nm range | effect on the cytotoxic activity of prodigiosin [3, 11]: enhanced | decrease of the cytotoxic activity of prodigiosin on primary fibroblasts [4, 11]: at least one order of magnitude

CC(C)C[C@H](NC(=O)[C@H](Cc1ccccc1)NC(=O)[C@H](CC(=O)O)NC(=O)[C@H](CCCNC(=N)N)NC(=O)CNC(=O)[C@@H](NC(=O)[C@H](CC(N)=O)NC(=O)[C@H](CO)NC(=O)[C@H](CC(N)=O)NC(=O)[C@H](Cc1ccccc1)NC(=O)CNC(=O)[C@H](Cc1ccc(O)cc1)NC(=O)[C@@H](NC(=O)[C@@H](NC(=O)[C@H](CC(=O)O)NC(=O)CN)[C@@H](C)O)C(C)C)[C@@H](C)O)C(=O)N[C@@H](CO)C(=O)N[C@H](C(=O)N[C@H](C(=O)N[C@@H](CO)C(N)=O)[C@@H](C)O)[C@@H](C)O [Peptide N06P87] (H-GDTVYGFNSNTGRDFLSTTS-NH2)
cytotoxic / biological activity in vitro on tumor cells ([5]; peptide library screening): active | change of cytotoxic activity by parenteral formulation buffers, pH and additives ([5]; tumor cells from diverse histological origins): no increased on its cytotoxic activity | GI50 [7]: < 100 µM | GI50 [8]: < 100 µM | GI50 [9]: < 100 µM | GI50 [10]: < 100 µM

CC(C)C[C@@H]1NC(=O)[C@H](Cc2ccccc2)NC(=O)[C@H](CC(=O)O)NC(=O)[C@H](CCCNC(=N)N)NC(=O)CNC(=O)[C@H]([C@@H](C)O)NC(=O)[C@H](CC(N)=O)NC(=O)[C@H](CO)NC(=O)[C@H](CC(N)=O)NC(=O)[C@H](Cc2ccccc2)NC(=O)CNC(=O)[C@H](Cc2ccc(O)cc2)NC(=O)[C@H](C(C)C)NC(=O)[C@H]([C@@H](C)O)NC(=O)[C@H](CC(=O)O)NC(=O)CNC(=O)[C@@H](N)CSSC[C@@H](C(N)=O)NC(=O)[C@H](CO)NC(=O)[C@H]([C@@H](C)O)NC(=O)[C@H]([C@@H](C)O)NC(=O)[C@H](CO)NC1=O [Peptide N06P89] (H-CGDTVYGFNSNTGRDFLSTTSC-NH2; disulfide 1-22)
cytotoxic activity / inhibition of cellular proliferation [6]: inability; also recorded: loss of peptide's biological activity

— patent publication US9375459B2, “Cyclic peptides with an anti-neoplasic and anti-angiogenic activity” (priority 2011, dated 2016)
